Drawing on PubChem BioAssay AID493086 (The Scripps Research Institute Molecular Screening Center, 2011), this text covers IC50 for 85 molecules.

Molecules are shown by their SMILES. pIC50: −log10 of the molar value. Calls of active or inactive are those of the source.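 The calls were made as follows: active = IC50 at or below 10 µM; inactive = IC50 above 10 µM.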 Some results are limits rather than exact numbers.

The target in this assay is Induced myeloid leukemia cell differentiation protein Mcl-1 (Homo sapiens) (UniProt Q07820). Description: blockers of MCL1–BIM BH3 interaction – biochemical, fluorescence polarization, assay provider data, powder samples, late-stage follow-up (AID 493086). Particulars: GST-MCL1 / FITC-BIM-BH3 fluorescence polarization. A general note: Fluorescence polarisation rises when a labelled molecule tumbles more slowly, as on binding a larger partner.
Sequence of Induced myeloid leukemia cell differentiation protein Mcl-1 (Homo sapiens) (Q07820 whole entry, looked up): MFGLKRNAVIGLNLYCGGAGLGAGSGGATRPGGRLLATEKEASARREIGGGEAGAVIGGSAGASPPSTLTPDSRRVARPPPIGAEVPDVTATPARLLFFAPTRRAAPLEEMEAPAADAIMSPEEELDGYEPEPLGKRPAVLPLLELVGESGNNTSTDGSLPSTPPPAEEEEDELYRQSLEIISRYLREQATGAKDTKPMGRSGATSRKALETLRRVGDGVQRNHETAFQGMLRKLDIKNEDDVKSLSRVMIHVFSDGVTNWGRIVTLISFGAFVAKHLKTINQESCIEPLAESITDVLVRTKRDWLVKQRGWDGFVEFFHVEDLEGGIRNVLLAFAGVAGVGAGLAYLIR

`Cc1nnc(NC(=O)c2cc(-c3ccco3)nc3ccccc23)s1`: the IC50 entry was “inactive”.

Consider `COc1ccc(Cc2nnc(NC(=O)Cc3ccc(Oc4ccccc4)cc3)s2)cc1OC`, for which the IC50 was > 20 µM (inactive).

On to `CN(C)C(CNC(=O)c1cc(-c2ccco2)nc2ccccc12)c1ccccc1` (stereo not given), for which the IC50 is > 20 µM (inactive).

Turning to `COc1ccc(Cc2nnc(NC(=O)C(=O)c3ccco3)s2)cc1OC`, the IC50 is > 20 µM (inactive).

Regarding `COCCN(C(=O)c1cc(-c2ccco2)nc2ccccc12)c1c(N)n(Cc2ccccc2)c(=O)[nH]c1=O`, the pIC50 was 5.47.

`CCN(CC)CCNC(=O)c1cc(-c2ccco2)nc2ccccc12`: the IC50 is > 20 µM (inactive).

With `Cc1ccc(NC(=O)c2cc(-c3ccc(C)o3)nc3ccccc23)nc1`, the IC50 entry was “inactive”.

In the case of `COc1ccc(Cc2nnc(NC(=O)Cc3ccc(C)cc3)s2)cc1OC`, the IC50 was > 20 µM (inactive).

Consider `COc1cccc(NC(=O)CN(C)C(=O)c2cc(-c3ccc(C)o3)nc3ccccc23)c1`, for which the IC50 is > 20 µM (inactive).

`Cc1ccc(-c2cc(C(=O)Nc3nccs3)c3ccccc3n2)o1`: the IC50 was > 20 µM (inactive).

As to `Cc1cccc(NC(=O)c2cc(-c3ccco3)nc3ccccc23)n1`, the IC50 entry was “inactive”.

For the molecule `COc1ccccc1NC(=O)c1cc(-c2ccc(C)o2)nc2ccccc12`, the IC50 was > 20 µM (inactive).

Turning to `CC(C)CCNC(=O)c1cc(-c2ccco2)nc2ccccc12`, the IC50 was > 20 µM (inactive).

Consider `COc1ccc(Cc2nnc(NC(=O)C(F)c3ccccc3)s2)cc1OC` (stereo not given), for which the IC50 was > 20 µM (inactive).

`O=C(c1cc(-c2ccco2)nc2ccccc12)N1CCN(c2ccc(F)cc2)CC1`: the IC50 is > 20 µM (inactive).

For `CCCCn1c(N)c(N(CCOC)C(=O)c2cc(-c3ccco3)nc3ccccc23)c(=O)[nH]c1=O`, the IC50 is > 20 µM (inactive).

As to `COc1cccc(NC(=O)c2cc(-c3ccc(C)o3)nc3ccccc23)c1`, the IC50 was > 20 µM (inactive).

On to `Cc1ccc(-c2cc(C(=O)N3CC(C)CC(C)C3)c3ccccc3n2)o1` (stereo not given), for which the IC50 was > 20 µM (inactive).

With `CCc1nnc(NC(=O)c2cc(-c3ccc(C)o3)nc3ccccc23)s1`, the IC50 was > 20 µM (inactive).

Take `CCc1nnc(NC(=O)c2cc(-c3ccco3)nc3ccccc23)s1`: the IC50 result was “inactive”.

For the molecule `COc1ccc(Cc2nnc(NC(=O)Cc3cccs3)s2)cc1OC`, the IC50 was > 20 µM (inactive).

On to `CCCN(C(=O)c1cc(-c2ccco2)nc2ccccc12)c1c(N)n(Cc2ccccc2)c(=O)[nH]c1=O`, for which the IC50 entry is “inactive”.

Regarding `CCCCN(C(=O)c1cc(-c2ccco2)nc2ccccc12)c1c(N)n(CCCC)c(=O)[nH]c1=O`, the IC50 is > 20 µM (inactive).

In the case of `CCOC(=O)C1CCCN(C(=O)c2cc(-c3ccco3)nc3ccccc23)C1` (stereo not given), the pIC50 is 5.26.

Take `COc1ccc(Cc2nnc(NC(=O)Cc3sc(=S)[nH]c3C)s2)cc1OC`: the IC50 was > 20 µM (inactive).

For the molecule `CC1CCCN(C(=O)c2cc(-c3ccco3)nc3ccccc23)C1` (stereo not given), the IC50 was > 20 µM (inactive).

With `CCOC(=O)c1cc(-c2ccco2)nc2c1c(C)nn2-c1ccccc1`, the IC50 is > 20 µM (inactive).

Take `O=C(Nc1ccccc1N1CCOCC1)c1cc(-c2ccco2)nc2ccccc12`: the IC50 result was “inactive”.

In the case of `COc1ccc(Cc2nnc(NC(=O)Cc3ccc4ccccc4c3)s2)cc1OC`, the IC50 was > 20 µM (inactive).

On to `O=C(NC(=S)Nc1cccc(S(=O)(=O)NC2=NCCC2)c1)c1cc(-c2ccco2)nc2ccccc12`, for which the IC50 is > 20 µM (inactive).

`Cc1ccc(-c2cc(C(=O)N3CC(C)OC(C)C3)c3ccccc3n2)o1` (stereo not given): the IC50 is > 20 µM (inactive).

As for `CCOc1cc(N2CCOCC2)c(OCC)cc1NC(=O)c1cc(-c2ccco2)nc2ccccc12`, the IC50 was > 20 µM (inactive).

Consider `COc1ccc(Cc2nnc(NC(=O)Cc3ccc(-c4ccccc4)cc3)s2)cc1OC`, for which the IC50 was > 20 µM (inactive).

Regarding `Cc1ccc(-c2cc(C(=O)Nc3cccc(S(=O)(=O)N(C)C)c3)c3ccccc3n2)o1`, the IC50 was > 20 µM (inactive).

With `O=C(Nc1cccc(S(=O)(=O)NC2=NCCC2)c1)c1cc(-c2ccco2)nc2ccccc12`, the IC50 result is “inactive”.

Consider `O=C(NC1CC1)c1cc(-c2ccco2)nc2ccccc12`, for which the pIC50 was 5.36.

With `COc1ccc(Cc2nnc(NC(=O)Cc3ccccc3C)s2)cc1OC`, the IC50 is > 20 µM (inactive).

Regarding `CCN1CCN(C(=O)c2cc(-c3ccco3)nc3ccccc23)CC1`, the pIC50 is 5.17.

As to `COc1ccc(Cc2nnc(NC(=O)Cc3c[nH]c4ccccc34)s2)cc1OC`, the IC50 was > 20 µM (inactive).

Turning to `Cc1ccc(NC(=O)c2cc(-c3ccco3)nc3ccccc23)cc1S(=O)(=O)N1CCOCC1`, the IC50 entry was “inactive”.

As for `Cc1csc(NC(=O)c2cc(-c3ccco3)nc3ccccc23)n1`, the IC50 entry was “inactive”.

In the case of `O=C(Nc1cccc(S(=O)(=O)NC2=NCCCCC2)c1)c1cc(-c2ccco2)nc2ccccc12`, the IC50 was > 20 µM (inactive).

As to `O=C(NCCCN1CCOCC1)c1cc(-c2ccco2)nc2ccccc12`, the IC50 is > 20 µM (inactive).

As for `CCCC(=O)Nc1nnc(Cc2ccccc2)s1`, the IC50 is > 20 µM (inactive).

Consider `CN(CC(=O)Nc1ccc(F)cc1)C(=O)c1cc(-c2ccco2)nc2ccccc12`, for which the IC50 is > 20 µM (inactive).

Turning to `O=C(Nc1ccc(F)cc1F)c1cc(-c2ccco2)nc2ccccc12`, the IC50 was > 20 µM (inactive).

Turning to `CCOC(=O)c1cc(-c2ccco2)nc2c1c(C)nn2-c1cccc(Cl)c1`, the IC50 is > 20 µM (inactive).

As for `COC(=O)C1CCN(C(=O)c2cc(-c3ccco3)nc3ccccc23)CC1`, the pIC50 is 5.14.

For `COCCCN(C(=O)c1cc(-c2ccco2)nc2ccccc12)c1c(N)n(Cc2ccccc2)c(=O)[nH]c1=O`, the IC50 was > 20 µM (inactive).

For the molecule `CCCCN(C(=O)c1cc(-c2ccco2)nc2ccccc12)c1c(N)n(CCC)c(=O)[nH]c1=O`, the IC50 was > 20 µM (inactive).

In the case of `Cc1ccc(-c2cc(C(=O)NCCCn3ccnc3)c3cc(Br)ccc3n2)o1`, the IC50 entry is “inactive”.

Regarding `COc1ccc(Cc2nnc(NC(=O)Cc3cccnc3)s2)cc1OC`, the IC50 is > 20 µM (inactive).

Consider `COc1ccc(NC(=O)c2cc(-c3ccc(C)o3)nc3ccccc23)cc1OC`, for which the IC50 was > 20 µM (inactive).

On to `Cc1ccc(-c2cc(C(=O)N(C)CC(=O)Nc3ccccc3Br)c3ccccc3n2)o1`, for which the IC50 is > 20 µM (inactive).

In the case of `O=C(CCn1nnc2ccccc21)Nc1nnc(Cc2ccccc2)s1`, the IC50 was > 20 µM (inactive).

With `O=C(CCn1nnc2ccccc21)Nc1nnc(Cc2ccc(F)cc2)s1`, the IC50 was > 20 µM (inactive).

`COc1ccc(Cc2nnc(NC(=O)Cc3ccncc3)s2)cc1OC`: the IC50 is > 20 µM (inactive).

With `Cc1ccc(-c2cc(C(=O)N3CCCC(C(F)(F)F)C3)c3ccccc3n2)o1` (stereo not given), the IC50 was > 20 µM (inactive).

`O=C(Nc1cccc(F)c1)c1cc(-c2ccco2)nc2ccccc12`: the IC50 was > 20 µM (inactive).

For the molecule `COc1ccc(Cc2nnc(NC(=O)Cc3ccsc3)s2)cc1OC`, the IC50 was > 20 µM (inactive).

Regarding `COc1ccc(CCNC(=O)c2cc(-c3ccco3)nc3ccccc23)cc1`, the IC50 is > 20 µM (inactive).

`O=C(c1cc(-c2ccco2)nc2ccccc12)N1CCN(Cc2ccccc2)CC1`: the IC50 was > 20 µM (inactive).

As to `NS(=O)(=O)c1ccc(CCNC(=O)c2cc(-c3ccco3)nc3ccccc23)cc1`, the IC50 was > 20 µM (inactive).

Turning to `O=C(Nc1nc2ccccc2s1)c1cc(-c2ccco2)nc2ccccc12`, the IC50 was > 20 µM (inactive).

As for `CN(CCOc1ccc(Cl)cc1)C(=O)c1cc(-c2ccco2)nc2ccccc12`, the IC50 is > 20 µM (inactive).

Turning to `CCCn1c(N)c(N(CCOC)C(=O)c2cc(-c3ccco3)nc3ccccc23)c(=O)[nH]c1=O`, the IC50 is > 20 µM (inactive).

For `O=C(Nc1nncs1)c1cc(-c2ccco2)nc2ccccc12`, the IC50 result was “inactive”.

Take `O=C(c1cc(-c2ccco2)nc2ccccc12)N(Cc1nnc(-c2ccc(Cl)cc2)o1)C1CC1`: the IC50 was > 20 µM (inactive).

Regarding `CCCCCCNC(=O)c1cc(-c2ccco2)nc2ccccc12`, the IC50 is > 20 µM (inactive).

Consider `O=C(NCC1CCCO1)c1cc(-c2ccco2)nc2ccccc12` (stereo not given), for which the IC50 entry was “inactive”.

On to `Cc1ccc(-c2cc(C(=O)NCCN3CCOCC3)c3ccccc3n2)o1`, for which the IC50 was > 20 µM (inactive).

`COc1ccc(Cc2nnc(NC(=O)CCc3cccs3)s2)cc1OC`: the IC50 was > 20 µM (inactive).

With `COc1ccc(NC(=O)c2cc(-c3ccc(C)o3)nc3ccccc23)c(OC)c1`, the IC50 is > 20 µM (inactive).

As for `O=C(NC1CCC(O)CC1)c1cc(-c2ccco2)nc2ccccc12` (stereo not given), the IC50 result was “inactive”.

On to `CCCCn1c(N)c(N(CC(C)C)C(=O)c2cc(-c3ccco3)nc3ccccc23)c(=O)[nH]c1=O`, for which the IC50 is > 20 µM (inactive).

On to `CCCCn1c(N)c(N(CCC(C)C)C(=O)c2cc(-c3ccco3)nc3ccccc23)c(=O)[nH]c1=O`, for which the IC50 is > 20 µM (inactive).

Consider `Cc1ccc(-c2cc(C(=O)Nc3ccccc3C)c3ccccc3n2)o1`, for which the IC50 was > 20 µM (inactive).

Regarding `Cc1ccc(-c2cc(C(=O)N3CCN(c4ncccn4)CC3)c3cc(Br)ccc3n2)o1`, the IC50 result was “inactive”.

With `O=C(Nc1nccs1)c1cc(-c2ccco2)nc2ccccc12`, the IC50 result was “inactive”.

For `CCC(=O)Nc1nnc(Cc2ccccc2)s1`, the IC50 was > 20 µM (inactive).

Regarding `Cc1ccc(-c2cc(C(=O)N3CCN(c4ccccc4O)CC3)c3ccccc3n2)o1`, the IC50 was > 20 µM (inactive).

For the molecule `CC(=O)N1CCN(C(=O)c2cc(-c3ccc(C)o3)nc3ccccc23)CC1`, the IC50 is > 20 µM (inactive).

On to `COc1ccc(Cc2nnc(NC(=O)Cc3cccs3)s2)cc1`, for which the IC50 is > 20 µM (inactive).

As for `Cc1ccc(-c2cc(C(=O)Nc3ccccn3)c3ccccc3n2)o1`, the IC50 entry is “inactive”.

Consider `Cc1ccc(-c2cc(C(=O)NCC(c3ccccc3)N(C)C)c3ccccc3n2)o1` (stereo not given), for which the IC50 was > 20 µM (inactive).

The IC50 is the concentration that inhibits the measured activity by half. The term pIC50 denotes the IC50 on a negative log10 scale, so that one unit is a factor of ten.
